Calls of active or inactive are those of the source.
How the values were obtained:
BJ [1] = test: cytotoxicity toward Ras-transformed BJeLR fibroblasts, dose response, cell-based, alamar blue fluorescence, cherrypicked samples (AID 2631); format: functional; details: Homo sapiens;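 also: confirmatory dose-response assay in RAS-dependent BJ fibroblasts engineered with TERT, LT and ST, with cytotoxicity read by fluorescence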
BJ [2] = test: cytotoxicity toward BJ-TERT-LT-ST fibroblasts, dose response, cell-based, RAS-independent, luminescence (AID 1935); format: functional; details: Homo sapiens;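 also: BJ fibroblasts immortalized with TERT plus LT and ST oncogenes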
BJ [3] = test: cells; format: functional, cell-based; details: Homo sapiens
BJ [4] = test: cytotoxicity toward BJ-TERT fibroblasts, dose response, cell-based, RAS-independent, luminescence (AID 1933); format: functional; details: Homo sapiens
[5] = cytotoxicity toward DRD oncogenic fibroblasts, dose response, cell-based, non-viral oncogenic, luminescence (AID 1934); format: functional; details: Homo sapiens
Caspase-3 [6] = biological target: T1, Caspase-3 (Homo sapiens, UniProt P42574); format: functional
T1 sequence (P42574 whole entry): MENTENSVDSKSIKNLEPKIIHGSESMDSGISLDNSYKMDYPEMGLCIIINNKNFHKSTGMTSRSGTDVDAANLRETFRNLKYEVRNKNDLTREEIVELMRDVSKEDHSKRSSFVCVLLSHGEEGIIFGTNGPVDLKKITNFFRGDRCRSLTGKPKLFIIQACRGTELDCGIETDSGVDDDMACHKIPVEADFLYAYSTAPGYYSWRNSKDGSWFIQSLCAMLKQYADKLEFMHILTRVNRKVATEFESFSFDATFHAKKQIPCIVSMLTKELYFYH

[7] = biological target: T2, Sentrin-specific protease 7 (Homo sapiens, UniProt Q9BQF6); format: functional;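 also: Luminescence-based dose-response confirmation of ultra-high-throughput screening hits, measuring inhibition of SENP7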
T2 sequence (Q9BQF6 whole entry): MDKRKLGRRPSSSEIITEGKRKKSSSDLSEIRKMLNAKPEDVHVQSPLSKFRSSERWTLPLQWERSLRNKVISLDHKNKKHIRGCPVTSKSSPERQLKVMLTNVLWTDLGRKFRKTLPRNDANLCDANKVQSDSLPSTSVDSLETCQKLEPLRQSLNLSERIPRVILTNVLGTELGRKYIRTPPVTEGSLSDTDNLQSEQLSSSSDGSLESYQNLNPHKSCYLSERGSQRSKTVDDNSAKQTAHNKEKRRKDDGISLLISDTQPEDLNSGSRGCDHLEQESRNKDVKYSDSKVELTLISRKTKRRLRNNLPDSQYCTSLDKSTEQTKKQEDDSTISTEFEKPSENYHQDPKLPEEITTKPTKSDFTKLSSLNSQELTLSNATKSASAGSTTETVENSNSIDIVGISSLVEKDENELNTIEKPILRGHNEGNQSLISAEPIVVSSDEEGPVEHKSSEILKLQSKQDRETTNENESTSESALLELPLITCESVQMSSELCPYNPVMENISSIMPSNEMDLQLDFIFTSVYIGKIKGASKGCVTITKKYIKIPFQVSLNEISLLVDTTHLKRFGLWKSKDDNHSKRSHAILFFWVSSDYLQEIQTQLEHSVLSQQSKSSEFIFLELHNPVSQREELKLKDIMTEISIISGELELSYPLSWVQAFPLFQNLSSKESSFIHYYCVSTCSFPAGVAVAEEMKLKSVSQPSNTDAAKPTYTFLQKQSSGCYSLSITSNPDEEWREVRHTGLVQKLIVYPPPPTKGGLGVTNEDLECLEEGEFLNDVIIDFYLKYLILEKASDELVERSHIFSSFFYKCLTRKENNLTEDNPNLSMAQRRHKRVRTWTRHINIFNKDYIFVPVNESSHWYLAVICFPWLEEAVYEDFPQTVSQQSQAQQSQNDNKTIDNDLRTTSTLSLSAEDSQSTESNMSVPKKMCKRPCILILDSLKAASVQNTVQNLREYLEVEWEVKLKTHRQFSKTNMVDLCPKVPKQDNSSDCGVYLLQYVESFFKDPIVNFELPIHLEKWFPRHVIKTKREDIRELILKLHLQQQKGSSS

[8] = biological target: T3, Sentrin-specific protease 8 (Homo sapiens, UniProt Q96LD8); format: functional;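 also: luminescence read-out of SENP8 inhibition, dose-response confirmation following an ultra-high-throughput screen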
T3 sequence (Q96LD8 whole entry): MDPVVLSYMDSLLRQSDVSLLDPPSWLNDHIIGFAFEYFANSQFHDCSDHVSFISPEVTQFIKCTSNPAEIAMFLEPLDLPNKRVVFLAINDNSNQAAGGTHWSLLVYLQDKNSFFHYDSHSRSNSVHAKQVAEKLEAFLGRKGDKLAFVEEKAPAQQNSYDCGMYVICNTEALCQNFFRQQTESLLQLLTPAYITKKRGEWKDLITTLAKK

[9] = biological target: T4, Sentrin-specific protease 6 (Homo sapiens, UniProt Q9GZR1); format: functional
T4 sequence (Q9GZR1 whole entry): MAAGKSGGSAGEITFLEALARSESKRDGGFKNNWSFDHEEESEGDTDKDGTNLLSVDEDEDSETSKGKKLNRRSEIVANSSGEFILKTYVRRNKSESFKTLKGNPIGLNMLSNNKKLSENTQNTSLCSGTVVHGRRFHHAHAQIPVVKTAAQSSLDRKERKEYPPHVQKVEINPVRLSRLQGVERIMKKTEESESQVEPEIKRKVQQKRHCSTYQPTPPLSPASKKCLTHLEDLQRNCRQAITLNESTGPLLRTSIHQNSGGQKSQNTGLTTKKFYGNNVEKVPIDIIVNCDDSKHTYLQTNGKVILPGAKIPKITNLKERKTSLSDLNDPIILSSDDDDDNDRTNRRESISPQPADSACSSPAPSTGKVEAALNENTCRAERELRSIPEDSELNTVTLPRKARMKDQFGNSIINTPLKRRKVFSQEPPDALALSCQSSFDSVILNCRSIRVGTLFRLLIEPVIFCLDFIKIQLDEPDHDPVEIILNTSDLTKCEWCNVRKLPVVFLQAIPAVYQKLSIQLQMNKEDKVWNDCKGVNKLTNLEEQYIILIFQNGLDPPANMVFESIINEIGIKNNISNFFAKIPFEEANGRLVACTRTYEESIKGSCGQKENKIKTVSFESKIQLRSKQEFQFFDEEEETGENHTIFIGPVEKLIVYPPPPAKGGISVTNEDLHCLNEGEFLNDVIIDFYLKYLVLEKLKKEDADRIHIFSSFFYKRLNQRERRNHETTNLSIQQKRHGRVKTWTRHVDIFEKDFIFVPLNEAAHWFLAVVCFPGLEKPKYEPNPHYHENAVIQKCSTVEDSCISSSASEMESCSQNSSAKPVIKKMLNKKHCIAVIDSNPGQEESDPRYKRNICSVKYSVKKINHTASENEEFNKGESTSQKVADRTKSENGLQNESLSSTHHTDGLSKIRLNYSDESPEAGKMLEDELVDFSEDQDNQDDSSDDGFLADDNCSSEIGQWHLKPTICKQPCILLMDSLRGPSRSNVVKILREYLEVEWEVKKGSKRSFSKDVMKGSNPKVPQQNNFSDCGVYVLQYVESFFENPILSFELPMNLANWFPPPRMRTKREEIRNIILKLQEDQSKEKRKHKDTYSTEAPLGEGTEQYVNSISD

HEK293 [10] = test: HEK cell cytotoxicity by LDH release, dose response, cytotoxicity control for IDE activator project, fluorescence, HEK cells (AID 588440); format: functional, cell-based; details: Homo sapiens;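 also: cytotoxicity by LDH release measuring loss of membrane integrity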
HEK293 [11] = test: optical interference in Abeta FP readout, dose response, artefact control for IDE activator project, biochemical, fluorescence polarization (AID 588442); format: functional, cell-based; details: Homo sapiens
Insulin-degrading enzyme [12] = biological target: T5, Insulin-degrading enzyme (Homo sapiens, UniProt P14735); test: activators of recombinant IDE enzyme, dose response, counter-screen for IDE activator project, biochemical, fluorescence polarization (AID 588681)
T5 sequence (P14735 whole entry): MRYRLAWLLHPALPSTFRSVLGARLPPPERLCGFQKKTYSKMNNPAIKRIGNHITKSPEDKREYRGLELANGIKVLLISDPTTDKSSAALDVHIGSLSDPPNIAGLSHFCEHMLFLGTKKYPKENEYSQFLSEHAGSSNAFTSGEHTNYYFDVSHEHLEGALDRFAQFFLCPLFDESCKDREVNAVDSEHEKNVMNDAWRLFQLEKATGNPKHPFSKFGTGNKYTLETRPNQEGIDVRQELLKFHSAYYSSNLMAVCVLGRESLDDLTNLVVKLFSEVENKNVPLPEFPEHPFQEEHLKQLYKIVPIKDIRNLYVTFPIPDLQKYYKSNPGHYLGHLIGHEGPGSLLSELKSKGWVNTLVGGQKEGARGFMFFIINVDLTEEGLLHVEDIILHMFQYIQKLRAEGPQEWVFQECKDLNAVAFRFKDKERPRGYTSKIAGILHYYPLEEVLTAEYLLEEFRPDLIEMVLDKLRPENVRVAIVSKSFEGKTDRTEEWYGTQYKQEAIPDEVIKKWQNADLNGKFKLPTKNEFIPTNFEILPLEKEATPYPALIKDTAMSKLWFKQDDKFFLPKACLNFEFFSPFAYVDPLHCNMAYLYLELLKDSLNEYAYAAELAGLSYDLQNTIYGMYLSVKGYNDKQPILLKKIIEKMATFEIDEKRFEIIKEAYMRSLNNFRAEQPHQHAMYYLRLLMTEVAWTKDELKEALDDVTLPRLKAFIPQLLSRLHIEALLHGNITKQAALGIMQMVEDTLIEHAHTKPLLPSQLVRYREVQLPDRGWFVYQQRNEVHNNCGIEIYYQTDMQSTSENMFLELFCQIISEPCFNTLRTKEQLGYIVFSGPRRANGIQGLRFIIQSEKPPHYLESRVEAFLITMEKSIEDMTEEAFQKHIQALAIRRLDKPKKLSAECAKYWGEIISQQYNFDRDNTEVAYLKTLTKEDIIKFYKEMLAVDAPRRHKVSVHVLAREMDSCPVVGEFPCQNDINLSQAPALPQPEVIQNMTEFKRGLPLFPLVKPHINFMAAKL

Insulin-degrading enzyme [13] = biological target: T5, Insulin-degrading enzyme; test: activators of endogenous IDE in HEK cells, dose response, cell-based, fluorescence polarization (AID 588439); format: functional
[14] = Luminescence Cell-Based Dose Response HTS to Identify Inhibitors of 5'UTR Stem-Loop Driven Prion Protein mRNA Translation in H4 Neuroglioblastoma Cells. [Related pubchem assays: 1827 (Project Summary), 1813 (Primary HTS)]; format: functional
Streptococcus = test: Group A Streptococcus viability loss, dose response, counter-screen for streptokinase expression inhibitor project, luminescence, BacTiterGlo (AID 1915); format: functional, organism-based;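 also: potency for reduction of bacterial viability or growth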
[15] = system: Streptococcus sp. 'group A'; test: growth inhibition of control SK(-) GAS strain, dose response, counter-screen for streptokinase expression inhibitor project, luminescence, kanamycin, BacTiterGlo, confirmation (AID 1900); format: functional, organism-based
HEK293 [16] = test: inhibitors of LMP1-driven NF-kB reporter, dose response, cell-based, HEK293, luciferase, cherry-pick (AID 588343); format: functional; details: Homo sapiens
[17] = inhibitors of firefly luciferase expression or activity, dose response, H4 neuroglioma cells, luminescence (AID 1990); format: functional, cell-based
[18] = biological target: T2, Sentrin-specific protease 7; test: SENP7 protease inhibitors, SAR follow-up, biochemical, luminescence (AID 504497); format: functional
Caspase-3 [19] = biological target: T1, Caspase-3; test: SAR Analysis of small molecule inhibitors of Sentrin-specific proteases (SENPs) using a Caspase-3 Selectivity assay. [Related pubchem assays (depositor defined):AID2540, AID2599, AID434973, AID489001]; format: functional
[20] = biological target: T3, Sentrin-specific protease 8; test: SENP8 protease inhibitors, SAR follow-up, biochemical, luminescence (AID 504501); format: functional
Nonstructural protein 1 = Nonstructural protein 1 (Influenza A virus, UniProt Q194T2); format: functional, Influenza A virus (A/California/07/2009(H1N1))
[21] = inhibitors of SNCA 5'UTR-driven reporter translation, confirmation, H4 neuroglioma cells, luminescence (AID 1988); format: functional, cell-based
[22] = biological target: T4, Sentrin-specific protease 6; test: SAR Analysis of small molecule inhibitors of Sentrin-specific protease 6 (SENP6) using a Luminescent assay. [Related pubchem assays (depositor defined):AID2582, AID2599]; format: functional

Chain of Nonstructural protein 1 (Q194T2 whole entry): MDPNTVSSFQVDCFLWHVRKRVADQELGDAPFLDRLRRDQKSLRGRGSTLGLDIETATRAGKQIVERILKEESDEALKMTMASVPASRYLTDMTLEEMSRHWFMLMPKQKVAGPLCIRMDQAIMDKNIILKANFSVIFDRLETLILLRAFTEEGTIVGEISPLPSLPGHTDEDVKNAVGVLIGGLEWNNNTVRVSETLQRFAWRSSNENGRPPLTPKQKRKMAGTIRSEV

SMILES: COc1ccc(-c2coc3cc4oc(=O)c5ccccc5c4cc23)cc1F
- EC50 (BJ [1]): 618 nM (inconclusive)
- EC50 (BJ [2]): 660 nM (inconclusive)
- EC50 (BJ [3]): 109 µM (inconclusive)
- EC50 (BJ [4]): 669 nM (inconclusive)
- EC50 [5]: 923 nM (active)

SMILES: Cn1cc(/C=C/C(=O)c2ccccc2)c2ccccc21
- IC50 (Caspase-3 [6]): 17.7 µM (active)
- IC50 [7]: 3.24 µM (active)
- IC50 [8]: 64.9 µM (active)
- IC50 [9]: 7.58 µM (active)

SMILES: COCCN=C(S)N(C)C1(c2ccccc2Cl)CCCCC1=O (stereo not given)
- IC50 (HEK293 [10]): > 89.2 µM (inactive)
- EC50 (HEK293 [11]): > 55.9 µM (inactive)
- EC50 (Insulin-degrading enzyme [12]): > 54.7 µM (inactive)
- EC50 (Insulin-degrading enzyme [13]): > 54.7 µM (inactive)

SMILES: Cc1ccnc(Nc2nc(-c3ccc(F)cc3)cs2)c1
- IC50 (Caspase-3 [6]): 44.4 µM (active)
- IC50 [7]: 6.9 µM (active)
- IC50 [8]: 9.93 µM (active)
- IC50 [9]: 38.4 µM (active)

SMILES: COc1c(C(=O)Nc2ccc3[nH]c(O)nc3c2)cc2ccccc2c1Br
- IC50 (HEK293 [10]): 34.5 µM (inactive)
- EC50 (HEK293 [11]): > 54.7 µM (inactive)
- EC50 (Insulin-degrading enzyme [12]): > 54.7 µM (inactive)
- EC50 (Insulin-degrading enzyme [13]): > 54.7 µM (inactive)

SMILES: O=[N+]([O-])c1ccc(O)c(/C=N/Nc2ncnc3c2cnn3-c2ccccc2)c1
- EC50 [14]: 23.6 µM (active)
- IC50 (Caspase-3 [6]): > 100 µM (inactive)
- EC50 (Streptococcus): 1.01 µM (active)
- EC50 [15]: 1.02 µM (active)
- AC50 (HEK293 [16]): 18.5 µM (active)
- EC50 [17]: 11.4 µM (active)
- IC50 [18]: 1.4 µM (active)
- IC50 (Caspase-3 [19]): 4.42 µM (active)
- IC50 [20]: 1.49 µM (active)
- IC50 [7]: 1.94 µM (active)
- IC50 (Nonstructural protein 1): > 100 µM (active)
- IC50 [8]: 2.44 µM (active)
- EC50 [21]: 5.1 µM (inconclusive)
- IC50 [9]: 11.3 µM (active)
- IC50 [22]: 1.54 µM (active)

SMILES: CCOc1cc(C(=S)N2CCCC2)ccc1OCc1ccccc1F
- IC50 [18]: > 99 µM (inactive)
- IC50 (Caspase-3 [19]): > 99 µM (inactive)
- IC50 [20]: > 99 µM (inactive)
- IC50 [22]: > 99 µM (inactive)

— ChEMBL document CHEMBL1201862, “PubChem BioAssay data set” (2004)
